Laboratory results published in patent publication US20150105409A1, “HDAC INHIBITORS, ALONE OR IN COMBINATION WITH BTK INHIBITORS, FOR TREATING NONHODGKIN'S LYMPHOMA” (Acetylon Pharmaceticals, Inc., priority 2013, published 2015).

What was measured:
Assay type in all cases: cell-based, human
Mino cells [1] = experiment: Apoptosis by 7-AAD/Annexin V flow cytometry; settings: 48 hours, Compound A 3 or 12.5 μM, ibrutinib 10 or 30 μM, alone or combined (FIGS. 2-3)
From the text: (§1) Annexin/PI flow cytometric analysis was used to determine percentage of apoptotic cells. […]

Z138 cells [2] = experiment: Apoptosis by 7-AAD/Annexin V flow cytometry; settings: Z138, 48 hours; Compound A 3 or 12.5 μM, ibrutinib 10 or 30 μM, alone or combined (FIGS. 2-3)
From the text: as §1

Mino cells [3] = experiment: Cell cycle analysis by propidium iodide flow cytometry; settings: 48 hours, Compound A 13 μM, ibrutinib 10 μM, alone or combined (FIG. 5)
Procedure: Cells were fixed and stained with propidium iodide (PI) and were analyzed by flow cytometry.

Z138 MCL cells = experiment: CellTiter-Blue cell viability, combination (CI analysis); settings: Z138, 72 hours, single agent
From the text: Cell viability was next assessed using the CellTiter-Blue reagent (Promega). The results of these experiments are shown in FIG. 8 and in the Table below.

Mino MCL cells = experiment: as above; settings: 72 hours, single agent
From the text: Cell viability was next assessed using the CellTiter-Blue reagent (Promega).

Mino cells [4] = experiment: Viability of MCL cells after inhibition of HDAC6
Z138 cells [5] = experiment: Viability of MCL cells after inhibition of HDAC6
[6] = at Fa of combination dose 1.3E−6/3.1E−6
[7] = at Fa of combination dose 2.5E−6/6.2E−6
[8] = at Fa of combination dose 5.0E−6/12.5E−6
[9] = at Fa of combination dose 10.0E−6/25.0E−6
[10] = at Fa of combination dose 20.0E−6/50.0E−6
[11] = at Fa of combination dose 78.1E−9/195.3E−9
[12] = at Fa of combination dose 156.3E−9/390.6E−9
[13] = at Fa of combination dose 312.5E−9/781.2E−9
[14] = at Fa of combination dose 625.0E−9/1.6E−6

**Q.** Which results are given for C=CC(=O)N1CCC[C@@H](n2nc(-c3ccc(Oc4ccccc4)cc3)c3c(N)ncnc32)C1 [ibrutinib, reference compound]?
**A.** induction of apoptosis (Mino cells [1]): induction of apoptosis; induction of apoptosis (Z138 cells [2]): induction of apoptosis; cell cycle distribution (Mino cells [3]): little effect on cell cycle distribution; Dm (PCI-32765) (Z138 MCL cells; [6]): 56.7E−6; Dm (PCI-32765) (Z138 MCL cells; [7]): 146.1E−6; Dm (PCI-32765) (Z138 MCL cells; [8]): 376.3E−6; Dm (PCI-32765) (Z138 MCL cells; [9]): 969.0E−6; Dm (PCI-32765) (Z138 MCL cells; [10]): 2.5E−3; Dm (PCI-32765) (Z138 MCL cells; [11]): 1.3E−6; Dm (PCI-32765) (Z138 MCL cells; [12]): 3.3E−6; Dm (PCI-32765) (Z138 MCL cells; [13]): 8.6E−6; Dm (PCI-32765) (Z138 MCL cells; [14]): 22.0E−6; Dm (PCI-32765) (Mino MCL cells; [6]): 5.1E−6; Dm (PCI-32765) (Mino MCL cells; [7]): 10.2E−6; Dm (PCI-32765) (Mino MCL cells; [8]): 20.5E−6; Dm (PCI-32765) (Mino MCL cells; [10]): 83.0E−6; Dm (PCI-32765) (Mino MCL cells; [11]): 308.7E−9; Dm (PCI-32765) (Mino MCL cells; [12]): 621.3E−9; Dm (PCI-32765) (Mino MCL cells; [13]): 1.3E−6; Dm (PCI-32765) (Mino MCL cells; [14]): 2.5E−6

**Q.** Which results are given for O=C(CCCCCCNC(=O)c1cnc(N(c2ccccc2)c2ccccc2)nc1)NO [Compound A, 2-(diphenylamino)-N-(7-(hydroxyamino)-7-oxoheptyl)pyrimidine-5-carboxamide]?
**A.** cell viability (Mino cells [4]): decreased viability; cell viability (Z138 cells [5]): decreased viability; induction of apoptosis (Mino cells [1]): induction of apoptosis; induction of apoptosis (Z138 cells [2]): induction of apoptosis; cell cycle distribution (Mino cells [3]): little effect on cell cycle distribution; Dm (Cmpd A) (Z138 MCL cells; [6]): 1.7E−6; Dm (Cmpd A) (Z138 MCL cells; [7]): 3.4E−6; Dm (Cmpd A) (Z138 MCL cells; [8]): 6.8E−6; Dm (Cmpd A) (Z138 MCL cells; [9]): 13.7E−6; Dm (Cmpd A) (Z138 MCL cells; [10]): 27.7E−6; Dm (Cmpd A) (Z138 MCL cells; [11]): 100.1E−9; Dm (Cmpd A) (Z138 MCL cells; [12]): 202.2E−9; Dm (Cmpd A) (Z138 MCL cells; [13]): 408.3E−9; Dm (Cmpd A) (Z138 MCL cells; [14]): 824.5E−9; Dm (Cmpd A) (Mino MCL cells; [6]): 1.6E−6; Dm (Cmpd A) (Mino MCL cells; [7]): 13.1E−6; Dm (Cmpd A) (Mino MCL cells; [8]): 108.1E−6; Dm (Cmpd A) (Mino MCL cells; [9]): 894.0E−6; Dm (Cmpd A) (Mino MCL cells; [10]): 7.4E−3; Dm (Cmpd A) (Mino MCL cells; [11]): 338.3E−12; Dm (Cmpd A) (Mino MCL cells; [12]): 2.8E−9; Dm (Cmpd A) (Mino MCL cells; [13]): 23.1E−9; Dm (Cmpd A) (Mino MCL cells; [14]): 191.2E−9
